Assay results: patent publication US20090082456A1, “SOLUBLE EPOXIDE HYDROLASE INHIBITORS” (Arete Therapeutics, Inc., priority 2007, published 2009)

Legend:
[1] = test system: soluble epoxide hydrolase (sEH); experiment: Fluorescent assay for mouse and human soluble epoxide hydrolase (CMNPC substrate); type: biochemical
Text: Recombinant mouse sEH (MsEH) and human sEH (HsEH) were produced in a baculovirus expression system as previously reported. Grant et al., J. Biol. Chem., 268:17628-17633 (1993); Beetham et al., Arch. Biochem. Biophys., 305:197-201 (1993). The expressed proteins were purified from cell lysate by affinity chromatography. Wixtrom et al., Anal. Biochem., 169:71-80 (1988). Protein concentration was quantified using the Pierce BCA assay using bovine serum albumin as the calibrating standard. The preparations were at least 97% pure as judged by SDS-PAGE and scanning densitometry. They contained no detectable esterase or glutathione transferase activity which can interfere with the assay. The assay was also evaluated with similar results in crude cell lysates or homogenate of tissues. The IC50s for each inhibitor were according to the following procedure: Cyano(2-methoxynaphthalen-6-yl)methyl (3-phenyloxiran-2-yl)methyl carbonate (CMNPC; Jones P. D. et. al.; Analytical Biochemistry 2005; 343: pp. 66-75) Bis/Tris HCl 25 mM pH 7.0 containing 0.1 mg/mL of BSA (buffer A) Mother solution of enzyme in buffer A (Mouse sEH at 6 μg/mL and Human sEH at 5 μg/mL). Inhibitor dissolved in DMSO at the appropriate concentration. In a black 96 well plate, fill all the wells with 150 μL of buffer A. Add 2 μL of DMSO in well A2 and A3, and then add 2 μL of inhibitor solution in A1 and A4 through A12. Add 150 μL of buffer A in row A, then mix several time and transfer 150 μL to row B. Repeat this operation up to row H. The 150 μL removed from row H go to the trash. Add 20 μL of buffer A in column 1 and 2, then add 20 μL of enzyme solution to column 3 to 12. Incubate the plate for 5 minutes in the plate reader at 30° C. During incubation prepare the working solution of substrate by mixing 3.68 mL of buffer A (4×0.920 mL) with 266 μL (2×133 μL) of substrate solution). At t=0, add 30 μL of working substrate solution with multi-channel pipette labeled “Briggs 303” and start the reading ([S]final: 5 μM). Read with ex: 330 nm (20 nm) and em: 465 nm (20 nm) every 30 second for 10 minutes. The velocities are used to analyze and calculate the IC50s.

Compound	% Inh ([1]; Conc 200 nM) [%]	melting point [°C]	% Inh ([1]; Conc 1000 nM) [%]	% Inh ([1]; Conc 2000 nM) [%]
O=C(NC1CCC(NS(=O)(=O)c2cccc(C(F)(F)F)c2)CC1)NC12CC3CC(CC(C3)C1)C2 (stereo not shown) [Compound 1, N-(4-(3-(adamantan-1-yl)ureido)cyclohexyl)-3-(trifluoromethyl)benzenesulfonamide]	98	310 to 312	–	–
CC(=O)NC1CCC(NC(=O)NC23CC4CC(CC(C4)C2)C3)CC1 (stereo not shown) [Compound 2, N-(4-(3-(adamantan-1-yl)ureido)cyclohexyl)acetamide]	–	> 300	98	–
O=C(Nc1ccc(F)cc1)NC1CCC(NS(=O)(=O)c2cccc(C(F)(F)F)c2)CC1 (stereo not shown) [Compound 3, N-(4-(3-(4-fluorophenyl)ureido)cyclohexyl)-3-(trifluoromethyl)benzenesulfonamide]	98	296 to 299	–	–
CC(=O)NC1CCC(NC(=O)Nc2ccc(C(F)(F)F)cc2)CC1 (stereo not shown) [Compound 4, N-(4-(3-(4-(trifluoromethyl)phenyl)ureido)cyclohexyl)acetamide]	93	–	–	–
CS(=O)(=O)NC1CCC(NC(=O)NC23CC4CC(CC(C4)C2)C3)CC1 (stereo not shown) [Compound 5, N-(4-(3-(adamantan-1-yl)ureido)cyclohexyl)methanesulfonamide]	96	> 300	–	–
CS(=O)(=O)NC1CCC(NC(=O)Nc2ccc(C(F)(F)F)cc2)CC1 (stereo not shown) [Compound 6, N-(4-(3-(4-(trifluoromethyl)phenyl)ureido)cyclohexyl)methanesulfonamide]	99	237 to 239	–	–
CS(=O)(=O)NC1CCC(NC(=O)c2ccc(F)cc2)CC1 (stereo not shown) [Compound 7, 4-fluoro-N-(4-(methylsulfonamido)cyclohexyl)benzamide]	–	269 to 270	–	44
